The source of these data is patent US20240109873A1, “ANTAGONISTS OF THE MUSCARINIC ACETYLCHOLINE RECEPTOR M4” (Vanderbilt University, priority 2020, published 2024).

The target in the assay is T1, human mAChR M4 (Homo sapiens, UniProt P08173).
T1 construct: expressed in transfected cells; host or cells: CHO-K1 (ATCC), co-transfected with chimeric G protein Gqi5
T1 sequence (P08173 1-479): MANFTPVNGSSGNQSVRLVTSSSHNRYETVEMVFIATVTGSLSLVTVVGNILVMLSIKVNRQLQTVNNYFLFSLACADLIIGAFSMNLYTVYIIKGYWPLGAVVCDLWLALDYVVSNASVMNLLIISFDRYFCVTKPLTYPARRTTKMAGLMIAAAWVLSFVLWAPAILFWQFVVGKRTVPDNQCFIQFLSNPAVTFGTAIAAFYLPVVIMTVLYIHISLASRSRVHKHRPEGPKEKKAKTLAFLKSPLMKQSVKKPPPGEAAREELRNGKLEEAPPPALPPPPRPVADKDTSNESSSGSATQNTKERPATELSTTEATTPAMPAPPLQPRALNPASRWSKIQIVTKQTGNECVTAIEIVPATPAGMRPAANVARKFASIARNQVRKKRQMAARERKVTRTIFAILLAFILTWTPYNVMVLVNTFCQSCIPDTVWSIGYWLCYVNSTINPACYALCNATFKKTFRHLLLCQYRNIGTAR
Nature of the assay: mAChR M4 cell-based functional assay (calcium flux, antagonism of EC80 acetylcholine response, M4/Gqi5/CHO-K1 cells). Conditions: for Human M4 Emin: % ACh maximum at 30 μM; for IC50: decrease of the response elicited by an EC80 concentration of acetylcholine, CHO-K1 cells, Gqi5; for remaining activity at 30 µM: CHO-K1, % ACh maximum at 30 μM, read-out: Human M4 Emin. The procedure: Human or rat M4 cDNA, along with the chimeric G protein Gqi5, were transfected into Chinese hamster ovary (CHO-K1) cells purchased from the American Type Culture Collection using Lipofectamine2000. M4/Gqi5/CHO cells were grown in Ham's F-12 medium containing 10% heat-inactivated fetal bovine serum (FBS), 20 mM HEPES, 500 μg/mL G418 sulfate, and 200 μg/mL Hygromycin B.
For high throughput measurement of agonist-evoked increases in intracellular calcium, CHO-K1 cells stably expressing muscarinic receptors were plated in growth medium lacking G418 and hygromycin at 15,000 cells/20 μL/well in Greiner 384-well black-walled, tissue culture (TC)-treated, clear-bottom plates (VWR). Cells were incubated overnight at 37° C. and 5% CO2. The next day, cells were washed using an ELX 405 (BioTek) with assay buffer; the final volume was then aspirated to 20 μL. Next, 20 μL of a 2.3 μM stock of Fluo-4/acetoxymethyl ester (Invitrogen, Carlsbad, CA), prepared as a 2.3 mM stock in DMSO and mixed in a 1:1 ratio with 10% (w/v) Pluronic F-127 and diluted in assay buffer, was added to the wells and the cell plates were incubated for 50 min at 37° C. and 5% CO2. Dye was removed by washing with the ELX 405 and the final volume was aspirated to 20 μL. Compound master plates were formatted in a 10-point concentration-response curve (CRC) format (1:3 dilutions) in 100% DMSO with a starting concentration of 10 or 1 mM using a BRAVO liquid handler (Agilent). Test compound CRCs were then transferred to daughter plates (240 nL) using the Echo acoustic plate reformatter (Labcyte, Sunnyvale, CA) and then diluted into assay buffer (40 μL) to a 2× stock using a Thermo Fisher Combi (Thermo Fisher Scientific, Waltham, MA).
Calcium flux was measured using the Functional Drug Screening System (FDSS) 6000 or 7000 (Hamamatsu Corporation, Tokyo, Japan) as an increase in the fluorescent static ratio. Compounds were applied to cells (20 μL, 2×) using the automated system of the FDSS at 2 seconds into the protocol and the data were collected at 1 Hz. At 143 s, 10 μL of an EC20 concentration of the muscarinic receptor agonist acetylcholine was added (5×), followed by the addition of 12 μL of an EC80 concentration of acetylcholine at the 268 s time point (5×). Agonist activity was analyzed as a concentration-dependent increase in calcium mobilization upon compound addition. Positive allosteric modulator activity was analyzed as a concentration-dependent increase in the EC20 acetylcholine response. Antagonist activity was analyzed as a concentration-dependent decrease in the EC80 acetylcholine response; for the purposes of the tables herein, an IC50 (inhibitory concentration 50) was calculated as a concentration-dependent decrease of the response elicited by an EC80 concentration of acetylcholine. Concentration-response curves were generated using a four-parameter logistical equation in XLFit curve fitting software (IDBS, Bridgewater, NJ) for Excel (Microsoft, Redmond, WA) or Prism (GraphPad Software, Inc., San Diego, CA) or the Dotmatics software platform (Dotmatics, Bishop's Stortford, UK). […]
Compounds were synthesized as described above. Activity (IC50 and Emin) was determined in the mAChR M4 cell-based functional assay as described above and the data are shown in Table 2.

On to `[2H]C([2H])(C1CCOC(C)(C)C1)N1C[C@H]2C[C@H](Nc3ccc(-c4cnccc4C(F)(F)F)nn3)C[C@H]2C1` (single isomer, unassigned) [Compound 58], for which the “Human M4 Emin” value came to 3% and the IC50 was 9.4 nM.

On to `[2H]C([2H])(C1CCOC(C)(C)C1)N1C[C@H]2C[C@H](Nc3ccc(-c4cnccc4C(F)(F)F)nn3)C[C@H]2C1` (single isomer, unassigned) [Compound 59], for which the “Human M4 Emin” value amounted to 3% and the IC50 was 1 nM.

In the case of `FC(F)(F)c1ccncc1-c1ccc(N[C@H]2C[C@@H]3CN(CC4CCOCC4)C[C@@H]3C2)nn1` [Compound 1, (3aR,5s,6aS)-2-((tetrahydro-2H-pyran-4-yl)methyl)-N-(6-(4-(trifluoromethyl)pyridin-3-yl)pyridazin-3-yl)octahydrocyclopenta[c]pyrrol-5-amine], the remaining activity at 30 µM was found to be 4% and the IC50 amounted to 0.28 nM.

As to `[2H]C([2H])(C1CCOCC1)N1C[C@H]2C[C@H](Nc3ccc(-c4cnccc4C(F)(F)F)nn3)C[C@H]2C1` [Compound 2, (3aR,5s,6aS)-2-((tetrahydro-2H-pyran-4-yl)methyl-d2)-N-(6-(4-(trifluoromethyl)pyridin-3-yl)pyridazin-3-yl)octahydrocyclopenta[c]pyrrol-5-amine], the remaining activity at 30 µM was 3% and the IC50 was found to be 0.41 nM.

`[2H]C([2H])(C1CCOCC1(C)C)N1C[C@H]2C[C@H](Nc3ccc(-c4cnccc4C(F)(F)F)nn3)C[C@H]2C1` (stereo partly drawn) [Compound 3, (3aR,5s,6aS)-2-((3,3-dimethyltetrahydro-2H-pyran-4-yl)methyl-d2)-N-(6-(4-(trifluoromethyl)pyridin-3-yl)pyridazin-3-yl)octahydrocyclopenta[c]pyrrol-5-amine]: the remaining activity at 30 µM came to 2% and the IC50 worked out at 4.6 nM.

Take `[2H]C([2H])(N1C[C@H]2C[C@H](Nc3ccc(-c4cnccc4C(F)(F)F)nn3)C[C@H]2C1)C1(C)CCOCC1` [Compound 4, (3aR,5s,6aS)-2-((4-methyltetrahydro-2H-pyran-4-yl)methyl-d2)-N-(6-(4-(trifluoromethyl)pyridin-3-yl)pyridazin-3-yl)octahydrocyclopenta[c]pyrrol-5-amine]: the remaining activity at 30 µM turned out to be 2% and the IC50 is 15 nM.

As for `[2H]C([2H])([C@H]1COCCO1)N1C[C@H]2C[C@H](Nc3ccc(-c4cnccc4C(F)(F)F)nn3)C[C@H]2C1` [Compound 5, (3aR,5s,6aS)-2-(((S)-1,4-dioxan-2-yl)methyl-d2)-N-(6-(4-(trifluoromethyl)pyridin-3-yl)pyridazin-3-yl)octahydrocyclopenta[c]pyrrol-5-amine], the remaining activity at 30 µM was found to be 2% and the IC50 was found to be 0.91 nM.

Regarding `[2H]C([2H])([C@@H]1COCCO1)N1C[C@H]2C[C@H](Nc3ccc(-c4cnccc4C(F)(F)F)nn3)C[C@H]2C1` [Compound 6, (3aR,5s,6aS)-2-(((R)-1,4-dioxan-2-yl)methyl-d2)-N-(6-(4-(trifluoromethyl)pyridin-3-yl)pyridazin-3-yl)octahydrocyclopenta[c]pyrrol-5-amine], the remaining activity at 30 µM was determined as 3% and the IC50 came to 33 nM.

Regarding `[2H]C([2H])([C@H]1CCCCO1)N1C[C@H]2C[C@H](Nc3ccc(-c4cnccc4C(F)(F)F)nn3)C[C@H]2C1` [Compound 7, (3aR,5s,6aS)-2-(((R)-tetrahydro-2H-pyran-2-yl)methyl-d2)-N-(6-(4-(trifluoromethyl)pyridin-3-yl)pyridazin-3-yl)octahydrocyclopenta[c]pyrrol-5-amine], the remaining activity at 30 µM turned out to be 2% and the IC50 amounted to 0.13 nM.

For the compound `[2H]C([2H])([C@@H]1CCCCO1)N1C[C@H]2C[C@H](Nc3ccc(-c4cnccc4C(F)(F)F)nn3)C[C@H]2C1` [Compound 8, (3aR,5s,6aS)-2-(((S)-tetrahydro-2H-pyran-2-yl)methyl-d2)-N-(6-(4-(trifluoromethyl)pyridin-3-yl)pyridazin-3-yl)octahydrocyclopenta[c]pyrrol-5-amine], the remaining activity at 30 µM turned out to be 3% and the half-maximal inhibitory concentration (IC50) was determined as 0.086 nM.

`[2H]C([2H])(C1CCCOC1)N1C[C@H]2C[C@H](Nc3ccc(-c4cnccc4C(F)(F)F)nn3)C[C@H]2C1` (stereo partly drawn) [Compound 9, (3aR,5s,6aS)-2-((tetrahydro-2H-pyran-3-yl)methyl-d2)-N-(6-(4-(trifluoromethyl)pyridin-3-yl)pyridazin-3-yl)octahydrocyclopenta[c]pyrrol-5-amine]: the remaining activity at 30 µM came out at 2% and the IC50 worked out at 1 nM.

Take `[2H]C([2H])(C1CCCCC1)N1C[C@H]2C[C@H](Nc3ccc(-c4cnccc4C(F)(F)F)nn3)C[C@H]2C1` [Compound 10, (3aR,5s,6aS)-2-(cyclohexylmethyl-d2)-N-(6-(4-(trifluoromethyl)pyridin-3-yl)pyridazin-3-yl)octahydrocyclopenta[c]pyrrol-5-amine]: the remaining activity at 30 µM turned out to be 3% and the IC50 was 0.56 nM.

On to `[2H]C([2H])(N1C[C@H]2C[C@H](Nc3ccc(-c4cnccc4C(F)(F)F)nn3)C[C@H]2C1)C1(F)CCOCC1` [Compound 11, (3aR,5s,6aS)-2-((4-fluorotetrahydro-2H-pyran-4-yl)methyl-d2)-N-(6-(4-(trifluoromethyl)pyridin-3-yl)pyridazin-3-yl)octahydrocyclopenta[c]pyrrol-5-amine], for which the remaining activity at 30 µM came out at 2% and the IC50 is 0.86 nM.

Turning to `[2H]C1([2H])CC(C([2H])([2H])N2C[C@H]3C[C@H](Nc4ccc(-c5cnccc5C(F)(F)F)nn4)C[C@H]3C2)CC([2H])([2H])O1` [Compound 12, (3aR,5s,6aS)-2-((tetrahydro-2H-pyran-4-yl-2,2,6,6-d4)methyl-d2)-N-(6-(4-(trifluoromethyl)pyridin-3-yl)pyridazin-3-yl)octahydrocyclopenta[c]pyrrol-5-amine], the remaining activity at 30 µM is 2% and the IC50 was 0.77 nM.

As for `[2H]C([2H])(C1CCOCC1)N1C[C@H]2C[C@H](Nc3ccc(-c4cnccc4C(F)F)nn3)C[C@H]2C1` [Compound 13, (3aR,5s,6aS)-N-(6-(4-(difluoromethyl)pyridin-3-yl)pyridazin-3-yl)-2-((tetrahydro-2H-pyran-4-yl)methyl-d2)octahydrocyclopenta[c]pyrrol-5-amine], the remaining activity at 30 µM is 4% and the IC50 came out at 1.2 nM.

On to `[2H]C([2H])(C1CCOCC1)N1C[C@H]2C[C@H](Nc3nnc(-c4cnccc4C(F)(F)F)cc3C3CC3)C[C@H]2C1` [Compound 14, (3aR,5s,6aS)-N-(4-cyclopropyl-6-(4-(trifluoromethyl)pyridin-3-yl)pyridazin-3-yl)-2-((tetrahydro-2H-pyran-4-yl)methyl-d2)octahydrocyclopenta[c]pyrrol-5-amine], for which the remaining activity at 30 µM came out at 4% and the IC50 was 3.1 nM.
